Assays:
[1] = system: target genes of PPARδ in murine myocytes (C2C12); assay: Expression of target genes of PPARδ (PDK4, CPT1b, UCP2, UCP3) in murine myocytes, quantitative RT-PCR; format: cell-based; conditions: murine myocytes in vitro
Text: It is established that regulation of the expression of these genes is directly controlled by PPARδ in this cell type. The more the expression of the genes is increased, the greater the stimulating action of the compound according to the invention on metabolism in the muscle cells.
Cells from the murine cell line C2C12 (obtained from ECACC) are cultivated in DMEM medium (Gibco; 41965-039) with addition of 1% L-glutamine (Gibco; 25030), 1% of penicillin/streptomycin (VWR; BWSTL0022/100) and 10% decomplemented fetal calf serum (FCS. Gibco; 10270-106).
The cells are seeded on 24-well plates at a density of 50·10^3 cells/well. At confluence, the medium is replaced with a differentiating medium (basal medium with addition of 2% of horse serum (Gibco; 26050-088)), then incubated at 37° C. and 5% CO2 for 4 days in order to differentiate them to myocytes.
After 5 days of differentiation, the cells are put in a deprivation medium (basal medium without serum) for 6 hours. The cells are then treated with the compounds according to the invention in the deprivation medium. Compounds 2, 4, 7, 11, 39, 40, 46, 49 and 72 were in dose effect, corresponding to 1×, 10× and 100× their EC50 PPARδ. The compounds according to the invention were dissolved in dimethylsulfoxide (DMSO, Sigma; D5879). The cells were treated for 24 h at 37° C., 5% CO2. The effect of the compounds according to the invention was compared with the effect of DMSO alone.
After treatment, the total RNA is extracted from the cells using the NucleoSpine® 96 RNA kit (Macherey Nagel, Hoerdt, France) following the manufacturer's instructions.
1 μg of total RNA (quantified based on the UV spectrophotometer reading) was then reverse-transcribed to complementary DNA by reaction for 1 hour at 37° C. in a total volume of 30 μl containing buffer 1× (Invitrogen), 1.5 mM of DTT, 0.18 mM of dNTPs (Promega), 200 ng of pdN6 (Amersham), 30 U of RNase inhibitor (Promega) and 1 μl of MMLV-RT (Invitrogen).
(§1) The quantitative PCR experiments were carried out using the MyiQ Single-Color Real-Time PCR Detection System (Biorad, Marnes-la-Coquette, France) and were performed using the iQ SYBR Green Supermix kit following the supplier's recommendations, in 96-well plates, on 5 μl of diluted reverse-transcription reaction mixtures with a hybridization temperature of 60° C. Primer pairs specific to the PDK4, CPT1b, UCP2 and UCP3 genes under investigation were used:
The amount of fluorescence emitted is directly proportional to the amount of complementary DNA present at the start of the reaction and amplified during PCR. For each target investigated, a range is produced by successive dilutions of a pool constituted of a few microliters of various reverse-transcription reaction mixtures. The relative expression levels of each target are thus determined using the efficacy curves obtained with the points in the range.
The levels of expression of the genes of interest were then normalized relative to the level of expression of the reference gene 36B4 (whose specific primers are: sense primer: 5′-[…]-3′ (SEQ ID No. 19) and antisense primer: 5′-[…]-3′ (SEQ ID No. 20)). The induction factor, i.e. the ratio of the relative signal (induced by the compound according to the invention) to the mean of the relative values of the control group, was then calculated. The higher this factor, the greater the activating character of the compounds according to the invention with respect to gene expression. The final result is represented as the mean of the induction values in each experimental group.

[2] = system: MCP1 and MMP9 genes in human monocytes (THP1); assay: Expression of MCP1 and MMP9 in human monocytes stimulated with PMA, quantitative RT-PCR; format: cell-based; conditions: 24 h
Experimental: The antiinflammatory effects of the compounds according to the invention were evaluated by measuring the secretion and expression of macrophages chemoattractant protein (MCP1) and of matrix metalloproteinase 9 (MMP9) by monocytes treated with the compounds according to the invention for 24 hours and stimulated with PMA (phorbol 12-myristate 13-acetate, which causes an inflammatory response of the cells). The more the amount of MCP1 secreted is reduced, the greater the inhibitory action of the compounds according to the invention on the inflammatory reaction. Similarly, the more the expression of the genes coding for MCP1 and MMP9 is inhibited, the greater the antiinflammatory effect of the compounds according to the invention.
The THP1 human monocyte line (obtained from ATCC) is cultivated in RPMI1640 medium with addition of 25 mM Hepes (Gibco; 42401-018), 1% glutamine (Gibco; 25030-24) 1% penicillin/streptomycin (Biochrom AG; A 2213) and 10% decomplemented fetal calf serum (FCS. Gibco; 10270-106).
The cells are seeded on 24-well plates (Primaria BD Falcon) at a density of 8.70·10^5 cells/well in the treatment medium (same composition as the culture medium but with 0.2% of decomplemented fetal calf serum) and in the presence of 5 ng/mL of phorbol 12-myristate 13-acetate (PMA) for inducing the inflammatory response.
The compounds according to the invention were tested at 0.1, 0.3 and/or at 1 μm, and dissolved in dimethylsulfoxide (DMSO, Fluka; 41640). The cells are treated for 24 h at 37° C., 5% CO2. The effect of the compound according to the invention is compared with the effect of DMSO alone.
After treatment, the total RNA is extracted from the cells using the NucleoSpin® 96 RNA kit (Macherey Nagel, Hoerdt, France) following the manufacturer's instructions.
1 μg of total RNA (quantified based on the reading of the UV spectrophotometer) was then reverse-transcribed to complementary DNA by reaction for 1 hour at 37° C. in a total volume of 30 μl containing buffer 1× (Invitrogen), 1.5 mM of DTT, 0.18 mM of dNTPs (Promega), 200 ng of pdN6 (Amersham), 30 U of RNase inhibitor (Promega) and 1 μl of MMLV-RT (Invitrogen).
as §1, with “mixture” for “mixtures”, “MCP1” for “PDK4, CPT1b, UCP2”, “MMP9” for “UCP3”
The amount of fluorescence emitted is directly proportional to the amount of complementary DNA present at the start of the reaction and amplified during PCR. […] The relative expression levels of each target are thus determined using the efficacy curves obtained with the points in the range.
The levels of expression of the genes of interest were then normalized, […] relative to the level of expression of the reference gene 36B4 (whose specific primers are: sense primer: 5′-[…]-3′ (SEQ ID No. 19) and antisense primer: 5′-[…]-3′ (SEQ ID No. 20)). The induction factor, i.e. the ratio of the relative signal (induced by the compound according to the invention) to the mean of the relative values of the control group, was then calculated. […]

In the case of `CC(C)(Oc1ccc(CCC(OCc2ccccc2)c2ccc(-c3ccc(C(F)(F)F)cc3)s2)c(Cl)c1Cl)C(=O)O` (stereo not drawn) [Compound 7, 2-(4-(3-(benzyloxy)-3-(5-(4-(trifluoromethyl)phenyl)thien-2-yl)propyl)-2,3-dichlorophenoxy)-2-methylpropanoic acid], the “expression of genes involved in carbohydrate and lipid metabolism and in thermoregulation” value (from here on “expression of genes involved”) [1] is reported as “stimulating effects”, the “expression of MCP1 in human monocytes” value ([2]; at 1 μm) is reported as “significant decrease” and the “expression of MMP9 in human monocytes” value ([2]; at 1 μm) is reported as “significant decrease”.
In the case of `CC(C)(Oc1ccc(CCC(=O)c2ccc(-c3ccc(C(F)(F)F)cc3)s2)c(Cl)c1Cl)C(=O)O` [Compound 2, 2-(2,3-dichloro-4-(3-oxo-3-(5-(4-(trifluoromethyl)phenyl)thien-2-yl)propyl)phenoxy)-2-methylpropanoic acid], the “expression of genes involved” value [1] is reported as “stimulating effects” and the “expression of MCP1 in human monocytes” value ([2]; at 0.1 and 0.3 μm) is reported as “significant decrease”.
`CC(C)(Oc1ccc(CCC(=O)c2cc(-c3ccc(C(F)(F)F)cc3)cs2)c(Cl)c1Cl)C(=O)O` [Compound 11, 2-(2,3-dichloro-4-(3-oxo-3-(4-(4-(trifluoromethyl)phenyl)thien-2-yl)propyl)phenoxy)-2-methylpropanoic acid] was tested, and the “expression of genes involved” value [1] was “stimulating effects”, the “expression of MCP1 in human monocytes” value ([2]; at 1 μm) was “significant decrease” and the “expression of MMP9 in human monocytes” value ([2]; at 1 μm) was “significant decrease”.
`CC(C)(Oc1ccc(CCC(O)c2ccc(-c3ccc(C(F)(F)F)cc3)s2)c(Cl)c1Cl)C(=O)O` (stereo not drawn) [Compound 4, 2-(2,3-dichloro-4-(3-hydroxy-3-(5-(4-(trifluoromethyl)phenyl)thien-2-yl)propyl)phenoxy)-2-methylpropanoic acid] was tested, and the “expression of genes involved” value [1] was “stimulating effects”.
